The conditions of this data set: 101.33 kPa, Liquid, Vibrating tube method.

For 5 molecules, mass density results are on record in the NIST ThermoML archive (doi:10.1021/je5002945).

One may read the mass density as the mass of a sample divided by its volume.

Numbers after ± are expanded uncertainties.

Take `CNC=O` [N-methylformamide]: the mass density is, setting by setting: (293.15 K) 1003.35 ± 0.23 kg/m3; (298.15 K) 998.91 ± 0.23 kg/m3; (303.15 K) 994.49 ± 0.23 kg/m3; (308.15 K) 990.01 ± 0.23 kg/m3; (313.15 K) 985.47 ± 0.23 kg/m3; (318.15 K) 980.88 ± 0.23 kg/m3. Further, the mass density (323.15 K) was found to be 976.24 ± 0.23 kg/m3.

Take `CC(=O)N(C)C` [N,N-dimethylethanamide]: the mass density is on record as 940.92 ± 0.23 kg/m3 (293.15 K); 936.3 ± 0.23 kg/m3 (298.15 K); 931.62 ± 0.23 kg/m3 (303.15 K); 926.89 ± 0.23 kg/m3 (308.15 K); 922.09 ± 0.23 kg/m3 (313.15 K); 917.23 ± 0.23 kg/m3 (318.15 K). Moreover, the mass density (323.15 K) is on record as 912.23 ± 0.23 kg/m3.

As for `CCCCN(C=O)CCCC` [N,N-dibutylformamide], the mass density is, setting by setting: (293.15 K) 879.05 ± 0.23 kg/m3; (298.15 K) 875.12 ± 0.23 kg/m3; (303.15 K) 871.17 ± 0.23 kg/m3; (308.15 K) 867.15 ± 0.23 kg/m3; (313.15 K) 863.11 ± 0.23 kg/m3; (318.15 K) 859.01 ± 0.23 kg/m3. Moreover, the mass density (323.15 K) is on record as 854.82 ± 0.23 kg/m3.

With `CCNC=O` [N-ethylformamide], the mass density by setting is: (293.15 K) 951.59 ± 0.23 kg/m3; (298.15 K) 947.48 ± 0.23 kg/m3; (303.15 K) 943.29 ± 0.23 kg/m3; (308.15 K) 939.04 ± 0.23 kg/m3; (313.15 K) 934.78 ± 0.23 kg/m3; (318.15 K) 930.45 ± 0.23 kg/m3. The mass density (323.15 K) is 926.06 ± 0.23 kg/m3.

Consider `CN(C)C=O` [dimethylformamide], for which the mass density came to 948.72 ± 0.07 kg/m3 (293.15 K); 943.86 ± 0.07 kg/m3 (298.15 K); 939 ± 0.07 kg/m3 (303.15 K); 934.08 ± 0.07 kg/m3 (308.15 K); 929.13 ± 0.08 kg/m3 (313.15 K); 924.06 ± 0.08 kg/m3 (318.15 K). In addition, where the note is “323.15 K”, the mass density came to 918.96 ± 0.08 kg/m3.
